Assays:
α2 (non-selective) = assay: CEREP binding panel; settings: 10 μM, antagonist radioligand
AT1 (h) = molecular target: T1, AT1 (h) (Homo sapiens, UniProt P30556); assay: CEREP binding panel; settings: antagonist radioligand, read-out: % Inhibition of Control Specific Binding
T1 construct: purchased Millipore KinaseProfiler (kinases); Cerep (receptors and ion channels)

CCK1 (CCKA) (h) = molecular target: T2, CCK1 (CCKA) (h) (Homo sapiens, UniProt P32238); assay: CEREP binding panel; settings: agonist radioligand, read-out: % Inhibition of Control Specific Binding
T2 construct: purchased Millipore KinaseProfiler (kinases); Cerep (receptors and ion channels)

D1 (h) = molecular target: T3, D1 (h) (Homo sapiens, UniProt P21728); assay: CEREP binding panel; settings: antagonist radioligand, read-out: % Inhibition of Control Specific Binding
T3 construct: purchased Millipore KinaseProfiler (kinases); Cerep (receptors and ion channels)

D2S (h) = molecular target: T4, D2S (h) (Homo sapiens, UniProt P14416); assay: CEREP binding panel; settings: antagonist radioligand, read-out: % Inhibition of Control Specific Binding
T4 construct: purchased Millipore KinaseProfiler (kinases); Cerep (receptors and ion channels)

H1 (h) = molecular target: T5, H1 (h) (Homo sapiens, UniProt P35367); assay: CEREP binding panel; settings: antagonist radioligand, read-out: % Inhibition of Control Specific Binding
T5 construct: purchased Millipore KinaseProfiler (kinases); Cerep (receptors and ion channels)

δ2 (DOP) (h) = molecular target: T6, δ2 (DOP) (h) (Homo sapiens, UniProt P41143); assay: CEREP binding panel; settings: 10 μM, agonist radioligand
T6 construct: purchased Millipore KinaseProfiler (kinases); Cerep (receptors and ion channels)

5-HT1A (h) = molecular target: T7, 5-HT1A (h) (Homo sapiens, UniProt P08908); assay: CEREP binding panel; settings: agonist radioligand, read-out: % Inhibition of Control Specific Binding
T7 construct: purchased Millipore KinaseProfiler (kinases); Cerep (receptors and ion channels)

5-HT2B (h) = molecular target: T8, 5-HT2B (h) (Homo sapiens, UniProt P41595); assay: CEREP binding panel; settings: agonist radioligand, read-out: % Inhibition of Control Specific Binding
T8 construct: purchased Millipore KinaseProfiler (kinases); Cerep (receptors and ion channels)

VPAC1 (VIP1) (h) = molecular target: T9, VPAC1 (VIP1) (h) (Homo sapiens, UniProt P32241); assay: CEREP binding panel; settings: agonist radioligand, read-out: % Inhibition of Control Specific Binding
T9 construct: purchased Millipore KinaseProfiler (kinases); Cerep (receptors and ion channels)
T9 sequence (P32241 31-457): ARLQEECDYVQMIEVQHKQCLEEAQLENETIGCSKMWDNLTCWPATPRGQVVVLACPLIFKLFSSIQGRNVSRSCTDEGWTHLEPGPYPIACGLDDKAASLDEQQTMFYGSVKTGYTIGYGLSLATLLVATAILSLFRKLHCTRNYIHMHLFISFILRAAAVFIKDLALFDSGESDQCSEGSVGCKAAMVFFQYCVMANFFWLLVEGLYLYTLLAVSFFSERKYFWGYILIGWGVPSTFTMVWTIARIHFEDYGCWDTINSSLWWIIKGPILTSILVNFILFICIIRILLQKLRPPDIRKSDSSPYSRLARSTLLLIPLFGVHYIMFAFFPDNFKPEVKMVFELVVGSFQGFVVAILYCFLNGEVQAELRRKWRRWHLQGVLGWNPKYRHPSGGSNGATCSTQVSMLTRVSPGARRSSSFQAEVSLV

[1] = tested on: Ca2+ channel (L, verapamil site) (phenylalkylamine); assay: CEREP binding panel; settings: 10 μM, antagonist radioligand
[2] = molecular target: T10, norepinephrine transporter (h) (Homo sapiens, UniProt P23975); assay: CEREP binding panel; settings: antagonist radioligand, read-out: % Inhibition of Control Specific Binding
T10 construct: purchased Millipore KinaseProfiler (kinases); Cerep (receptors and ion channels)
T10 sequence (P23975 whole entry): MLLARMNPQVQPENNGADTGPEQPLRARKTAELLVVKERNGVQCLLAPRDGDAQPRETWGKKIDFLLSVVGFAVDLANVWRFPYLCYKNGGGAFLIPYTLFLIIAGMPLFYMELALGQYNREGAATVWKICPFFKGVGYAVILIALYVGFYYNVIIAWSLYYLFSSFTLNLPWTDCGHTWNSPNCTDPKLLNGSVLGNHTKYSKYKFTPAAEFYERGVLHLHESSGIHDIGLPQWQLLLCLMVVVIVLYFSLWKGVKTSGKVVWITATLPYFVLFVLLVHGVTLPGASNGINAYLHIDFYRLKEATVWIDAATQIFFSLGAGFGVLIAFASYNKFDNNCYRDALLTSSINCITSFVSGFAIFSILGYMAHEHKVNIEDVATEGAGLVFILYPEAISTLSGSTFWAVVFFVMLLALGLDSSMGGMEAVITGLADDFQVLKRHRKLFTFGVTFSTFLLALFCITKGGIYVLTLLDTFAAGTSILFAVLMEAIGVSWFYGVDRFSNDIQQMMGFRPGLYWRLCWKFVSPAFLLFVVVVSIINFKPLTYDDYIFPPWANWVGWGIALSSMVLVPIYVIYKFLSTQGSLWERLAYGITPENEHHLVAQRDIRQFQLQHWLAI

dopamine transporter (h) = molecular target: T11, dopamine transporter (h) (Homo sapiens, UniProt Q01959); assay: CEREP binding panel; settings: antagonist radioligand, read-out: % Inhibition of Control Specific Binding
T11 construct: purchased Millipore KinaseProfiler (kinases); Cerep (receptors and ion channels)

ASK1 = molecular target: T12, ASK1 (Homo sapiens, UniProt Q99683); assay: Millipore kinase panel; format: biochemical; settings: read-out: % Control
T12 construct: purchased Millipore KinaseProfiler (kinases); Cerep (receptors and ion channels)

BRSK1 = molecular target: T13, BRSK1 (Homo sapiens, UniProt Q8TDC3); assay: Millipore kinase panel; format: biochemical; settings: read-out: % Control
T13 construct: purchased Millipore KinaseProfiler (kinases); Cerep (receptors and ion channels)

BTK = molecular target: T14, BTK (Homo sapiens, UniProt Q06187); assay: Millipore kinase panel; format: biochemical; settings: read-out: % Control
T14 construct: purchased Millipore KinaseProfiler (kinases); Cerep (receptors and ion channels)

CAMKIV = molecular target: T15, CAMKIV (Homo sapiens, UniProt Q16566); assay: Millipore kinase panel; format: biochemical; settings: read-out: % Control
T15 construct: purchased Millipore KinaseProfiler (kinases); Cerep (receptors and ion channels)

DYRK2 = molecular target: T16, DYRK2 (Homo sapiens, UniProt Q92630); assay: Millipore kinase panel; format: biochemical; settings: read-out: % Control
T16 construct: purchased Millipore KinaseProfiler (kinases); Cerep (receptors and ion channels)
T16 sequence (Q92630 whole entry): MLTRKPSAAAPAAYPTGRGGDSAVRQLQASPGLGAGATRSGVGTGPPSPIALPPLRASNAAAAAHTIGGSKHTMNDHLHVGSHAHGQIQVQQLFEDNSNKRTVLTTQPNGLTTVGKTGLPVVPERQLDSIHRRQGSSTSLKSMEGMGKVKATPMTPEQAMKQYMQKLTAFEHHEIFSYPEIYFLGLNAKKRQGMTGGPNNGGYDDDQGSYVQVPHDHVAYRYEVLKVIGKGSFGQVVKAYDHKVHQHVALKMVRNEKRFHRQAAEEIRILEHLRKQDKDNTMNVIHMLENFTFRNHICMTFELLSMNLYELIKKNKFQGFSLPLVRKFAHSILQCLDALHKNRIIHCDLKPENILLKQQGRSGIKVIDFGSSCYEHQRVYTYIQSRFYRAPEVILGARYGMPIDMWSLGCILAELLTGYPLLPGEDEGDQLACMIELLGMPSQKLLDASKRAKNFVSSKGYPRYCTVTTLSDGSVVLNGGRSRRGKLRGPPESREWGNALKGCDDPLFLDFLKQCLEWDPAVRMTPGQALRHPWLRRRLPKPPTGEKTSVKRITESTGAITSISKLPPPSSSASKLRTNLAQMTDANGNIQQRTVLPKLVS

EPHB2 = molecular target: T17, EPHB2 (Homo sapiens, UniProt P29323); assay: Millipore kinase panel; format: biochemical; settings: read-out: % Control
T17 construct: purchased Millipore KinaseProfiler (kinases); Cerep (receptors and ion channels)

FMS = molecular target: T18, FMS (Homo sapiens, UniProt P07333); assay: Millipore kinase panel; format: biochemical; settings: read-out: % Control
T18 construct: purchased Millipore KinaseProfiler (kinases); Cerep (receptors and ion channels)

HIPK3 = molecular target: T19, HIPK3 (Homo sapiens, UniProt Q9H422); assay: Millipore kinase panel; format: biochemical; settings: read-out: % Control
T19 construct: purchased Millipore KinaseProfiler (kinases); Cerep (receptors and ion channels)

IKKBETA = molecular target: T20, IKKBETA (Homo sapiens, UniProt O14920); assay: Millipore kinase panel; format: biochemical; settings: read-out: % Control
T20 construct: purchased Millipore KinaseProfiler (kinases); Cerep (receptors and ion channels)

JNK2ALPHA2 = molecular target: T21, JNK2ALPHA2 (Homo sapiens, UniProt P45984); assay: Millipore kinase panel; format: biochemical; settings: read-out: % Control
T21 construct: purchased Millipore KinaseProfiler (kinases); Cerep (receptors and ion channels)
T21 sequence (P45984 whole entry): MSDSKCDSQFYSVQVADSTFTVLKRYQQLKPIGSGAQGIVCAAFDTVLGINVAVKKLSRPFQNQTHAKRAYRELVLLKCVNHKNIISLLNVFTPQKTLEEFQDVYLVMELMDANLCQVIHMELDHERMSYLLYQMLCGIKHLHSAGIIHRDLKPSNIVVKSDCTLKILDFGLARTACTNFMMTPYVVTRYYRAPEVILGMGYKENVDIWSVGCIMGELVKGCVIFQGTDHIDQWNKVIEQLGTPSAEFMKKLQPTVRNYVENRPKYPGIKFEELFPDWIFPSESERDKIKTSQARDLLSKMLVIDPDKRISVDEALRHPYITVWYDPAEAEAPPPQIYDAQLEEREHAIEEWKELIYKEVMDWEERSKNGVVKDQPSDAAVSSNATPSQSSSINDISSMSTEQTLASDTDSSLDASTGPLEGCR

LKB1 = molecular target: T22, LKB1 (Homo sapiens, UniProt Q15831); assay: Millipore kinase panel; format: biochemical; settings: read-out: % Control
T22 construct: purchased Millipore KinaseProfiler (kinases); Cerep (receptors and ion channels)
T22 sequence (Q15831 whole entry): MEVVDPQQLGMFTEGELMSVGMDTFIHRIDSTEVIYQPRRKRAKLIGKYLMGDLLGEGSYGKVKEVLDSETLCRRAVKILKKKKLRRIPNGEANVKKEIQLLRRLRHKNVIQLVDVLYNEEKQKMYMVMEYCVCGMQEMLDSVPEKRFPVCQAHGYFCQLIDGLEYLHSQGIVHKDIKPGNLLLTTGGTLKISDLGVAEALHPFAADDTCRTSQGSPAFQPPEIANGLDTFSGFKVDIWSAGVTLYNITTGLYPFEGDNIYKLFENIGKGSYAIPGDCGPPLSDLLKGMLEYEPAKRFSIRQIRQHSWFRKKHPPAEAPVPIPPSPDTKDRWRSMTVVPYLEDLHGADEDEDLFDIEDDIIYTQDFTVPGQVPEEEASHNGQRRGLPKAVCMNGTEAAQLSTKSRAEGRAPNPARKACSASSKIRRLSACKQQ
T22 sequence (Q7RTN6 whole entry partner): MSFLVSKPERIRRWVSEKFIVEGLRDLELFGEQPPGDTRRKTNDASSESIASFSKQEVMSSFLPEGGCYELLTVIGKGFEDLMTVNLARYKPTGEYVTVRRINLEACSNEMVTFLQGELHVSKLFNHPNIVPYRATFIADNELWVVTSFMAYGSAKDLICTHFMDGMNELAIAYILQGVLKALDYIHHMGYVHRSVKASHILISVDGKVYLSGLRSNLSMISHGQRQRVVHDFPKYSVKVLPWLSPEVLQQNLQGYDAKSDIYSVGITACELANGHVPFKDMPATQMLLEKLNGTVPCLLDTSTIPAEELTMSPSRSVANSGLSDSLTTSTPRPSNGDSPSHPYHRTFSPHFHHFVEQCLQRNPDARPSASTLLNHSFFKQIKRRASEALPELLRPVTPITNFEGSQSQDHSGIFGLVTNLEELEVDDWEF
T22 sequence (Q9Y376 whole entry partner): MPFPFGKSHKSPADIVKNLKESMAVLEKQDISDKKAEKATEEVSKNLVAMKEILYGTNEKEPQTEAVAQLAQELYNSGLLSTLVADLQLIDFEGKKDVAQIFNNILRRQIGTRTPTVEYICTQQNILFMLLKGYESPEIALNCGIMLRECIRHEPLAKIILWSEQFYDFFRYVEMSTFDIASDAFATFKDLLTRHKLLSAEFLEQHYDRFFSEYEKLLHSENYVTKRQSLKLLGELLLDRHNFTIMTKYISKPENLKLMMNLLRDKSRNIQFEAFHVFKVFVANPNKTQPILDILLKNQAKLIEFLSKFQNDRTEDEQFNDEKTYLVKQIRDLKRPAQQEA

MET = molecular target: T23, MET (Homo sapiens, UniProt P08581); assay: Millipore kinase panel; format: biochemical; settings: read-out: % Control
T23 construct: purchased Millipore KinaseProfiler (kinases); Cerep (receptors and ion channels)

MRCKBETA = molecular target: T24, MRCKBETA (Homo sapiens, UniProt Q9Y5S2); assay: Millipore kinase panel; format: biochemical; settings: read-out: % Control
T24 construct: purchased Millipore KinaseProfiler (kinases); Cerep (receptors and ion channels)

NEK6 = molecular target: T25, NEK6 (Homo sapiens, UniProt Q9HC98); assay: Millipore kinase panel; format: biochemical; settings: read-out: % Control
T25 construct: purchased Millipore KinaseProfiler (kinases); Cerep (receptors and ion channels)

PKCMU = molecular target: T26, PKCMU (Homo sapiens, UniProt Q15139); assay: Millipore kinase panel; format: biochemical; settings: read-out: % Control
T26 construct: purchased Millipore KinaseProfiler (kinases); Cerep (receptors and ion channels)
T26 sequence (Q15139 whole entry): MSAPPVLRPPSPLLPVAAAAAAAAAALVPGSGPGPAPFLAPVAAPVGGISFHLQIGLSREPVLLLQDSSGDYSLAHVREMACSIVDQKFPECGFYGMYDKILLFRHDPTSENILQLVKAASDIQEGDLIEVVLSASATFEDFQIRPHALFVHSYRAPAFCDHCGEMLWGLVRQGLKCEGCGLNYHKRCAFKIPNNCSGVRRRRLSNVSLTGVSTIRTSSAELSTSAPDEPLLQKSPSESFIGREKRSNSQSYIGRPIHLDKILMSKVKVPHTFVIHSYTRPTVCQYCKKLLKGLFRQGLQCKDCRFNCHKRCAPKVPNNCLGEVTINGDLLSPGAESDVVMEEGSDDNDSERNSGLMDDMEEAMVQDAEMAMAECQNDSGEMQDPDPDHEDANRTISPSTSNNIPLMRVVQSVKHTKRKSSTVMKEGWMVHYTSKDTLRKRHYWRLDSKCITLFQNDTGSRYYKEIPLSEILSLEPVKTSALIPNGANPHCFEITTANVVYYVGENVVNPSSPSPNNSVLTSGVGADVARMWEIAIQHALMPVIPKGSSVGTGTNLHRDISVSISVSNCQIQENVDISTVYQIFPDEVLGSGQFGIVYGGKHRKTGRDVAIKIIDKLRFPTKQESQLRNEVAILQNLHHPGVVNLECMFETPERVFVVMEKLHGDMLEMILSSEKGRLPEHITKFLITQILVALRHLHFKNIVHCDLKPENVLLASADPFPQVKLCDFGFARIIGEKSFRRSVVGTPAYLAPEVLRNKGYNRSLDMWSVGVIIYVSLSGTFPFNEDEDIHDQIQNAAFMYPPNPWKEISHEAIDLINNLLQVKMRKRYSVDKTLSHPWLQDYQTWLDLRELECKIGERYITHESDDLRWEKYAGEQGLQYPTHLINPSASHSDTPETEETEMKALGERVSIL

PKG1BETA = molecular target: T27, PKG1BETA (Homo sapiens, UniProt Q13976); assay: Millipore kinase panel; format: biochemical; settings: ATP at Km
T27 construct: purchased Millipore

PTK5 = molecular target: T28, PTK5 (Homo sapiens, UniProt P42685); assay: Millipore kinase panel; format: biochemical; settings: read-out: % Control
T28 construct: purchased Millipore KinaseProfiler (kinases); Cerep (receptors and ion channels)

RIPK2 = molecular target: T29, RIPK2 (Homo sapiens, UniProt O43353); assay: Millipore kinase panel; format: biochemical; settings: read-out: % Control
T29 construct: purchased Millipore KinaseProfiler (kinases); Cerep (receptors and ion channels)
T29 sequence (O43353 whole entry): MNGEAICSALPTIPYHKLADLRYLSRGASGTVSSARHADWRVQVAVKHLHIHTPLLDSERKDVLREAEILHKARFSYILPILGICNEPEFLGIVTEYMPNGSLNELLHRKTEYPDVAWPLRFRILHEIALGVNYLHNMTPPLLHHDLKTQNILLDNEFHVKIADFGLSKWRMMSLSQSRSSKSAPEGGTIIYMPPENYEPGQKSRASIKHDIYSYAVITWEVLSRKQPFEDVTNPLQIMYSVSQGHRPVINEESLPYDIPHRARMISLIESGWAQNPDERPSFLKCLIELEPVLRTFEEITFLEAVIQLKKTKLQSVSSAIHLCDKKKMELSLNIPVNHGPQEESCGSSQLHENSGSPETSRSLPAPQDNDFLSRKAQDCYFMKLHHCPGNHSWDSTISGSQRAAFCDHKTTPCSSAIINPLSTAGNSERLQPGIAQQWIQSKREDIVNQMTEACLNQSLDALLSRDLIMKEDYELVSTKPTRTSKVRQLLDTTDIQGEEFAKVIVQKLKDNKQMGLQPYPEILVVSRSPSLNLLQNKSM

RON = molecular target: T30, RON (Homo sapiens, UniProt Q04912); assay: Millipore kinase panel; format: biochemical; settings: read-out: % Control
T30 construct: purchased Millipore KinaseProfiler (kinases); Cerep (receptors and ion channels)

RSK1 = molecular target: T31, RSK1 (Homo sapiens, UniProt Q15418); assay: Millipore kinase panel; format: biochemical; settings: read-out: % Control
T31 construct: purchased Millipore KinaseProfiler (kinases); Cerep (receptors and ion channels)

SIK = molecular target: T32, SIK (Homo sapiens, UniProt P57059); assay: Millipore kinase panel; format: biochemical; settings: read-out: % Control
T32 construct: purchased Millipore KinaseProfiler (kinases); Cerep (receptors and ion channels)

TBK1 = molecular target: T33, TBK1 (Homo sapiens, UniProt Q9UHD2); assay: Millipore kinase panel; format: biochemical; settings: read-out: % Control
T33 construct: purchased Millipore KinaseProfiler (kinases); Cerep (receptors and ion channels)

WNK3 = molecular target: T34, WNK3 (Homo sapiens, UniProt Q9BYP7); assay: Millipore kinase panel; format: biochemical; settings: read-out: % Control
T34 construct: purchased Millipore KinaseProfiler (kinases); Cerep (receptors and ion channels)

GRK5 = molecular target: T35, GRK5 (Homo sapiens, UniProt P34947); assay: Millipore kinase panel; format: biochemical; settings: read-out: % Control
T35 construct: purchased Millipore KinaseProfiler (kinases); Cerep (receptors and ion channels)

CAMKIIBETA = molecular target: T36, CAMKIIBETA (Homo sapiens, UniProt Q13554); assay: Millipore kinase panel; format: biochemical; settings: read-out: % Control
T36 construct: purchased Millipore KinaseProfiler (kinases); Cerep (receptors and ion channels)

CLK3 = molecular target: T37, CLK3 (Homo sapiens, UniProt P49761); assay: Millipore kinase panel; format: biochemical; settings: read-out: % Control
T37 construct: purchased Millipore KinaseProfiler (kinases); Cerep (receptors and ion channels)

FAK = molecular target: T38, FAK (Homo sapiens, UniProt Q05397); assay: Millipore kinase panel; format: biochemical; settings: read-out: % Control
T38 construct: purchased Millipore KinaseProfiler (kinases); Cerep (receptors and ion channels)

VRK2 = molecular target: T39, VRK2 (Homo sapiens, UniProt Q86Y07); assay: Millipore kinase panel; format: biochemical; settings: read-out: % Control
T39 construct: purchased Millipore KinaseProfiler (kinases); Cerep (receptors and ion channels)

PIM-3 = molecular target: T40, PIM-3 (Homo sapiens, UniProt Q86V86); assay: Millipore kinase panel; format: biochemical; settings: read-out: % Control
T40 construct: purchased Millipore KinaseProfiler (kinases); Cerep (receptors and ion channels)

TLK2 = molecular target: T41, TLK2 (Homo sapiens, UniProt Q86UE8); assay: Millipore kinase panel; format: biochemical; settings: read-out: % Control
T41 construct: purchased Millipore KinaseProfiler (kinases); Cerep (receptors and ion channels)

MELK = molecular target: T42, MELK (Homo sapiens, UniProt Q14680); assay: Millipore kinase panel; format: biochemical; settings: read-out: % Control
T42 construct: purchased Millipore KinaseProfiler (kinases); Cerep (receptors and ion channels)

SMILES: Cn1cc(-c2ccc(-c3cncc(Cl)c3N3CCC4(CCNC4=O)CC3)cc2)cn1 [Compound 74, 8-(3-Chloro-5-(4-(1-methyl-1H-pyrazol-4-yl)phenyl)pyridin-4-yl)-2,8-diazaspiro[4.5]decan-1-one]
- % Inhibition of Control Specific Binding (α2 (non-selective)): 0%
- inhibition at 10 µM (AT1 (h)): 8%
- inhibition at 10 µM (CCK1 (CCKA) (h)): 2%
- inhibition at 10 µM (D1 (h)): 7%
- inhibition at 10 µM (D2S (h)): 5%
- inhibition at 10 µM (H1 (h)): 16%
- % Inhibition of Control Specific Binding (δ2 (DOP) (h)): 22%
- inhibition at 10 µM (5-HT1A (h)): 19%
- inhibition at 10 µM (5-HT2B (h)): 6%
- inhibition at 10 µM (VPAC1 (VIP1) (h)): 0%
- % Inhibition of Control Specific Binding [1]: 7%
- inhibition at 10 µM [2]: 14%
- inhibition at 10 µM (dopamine transporter (h)): 40%
- remaining activity at 1 µM (ASK1): -15%
- remaining activity at 1 µM (BRSK1): -25%
- remaining activity at 1 µM (BTK): -3%
- remaining activity at 1 µM (CAMKIV): 6%
- remaining activity at 1 µM (DYRK2): -9%
- remaining activity at 1 µM (EPHB2): 7%
- remaining activity at 1 µM (FMS): -21%
- remaining activity at 1 µM (HIPK3): -2%
- remaining activity at 1 µM (IKKBETA): 2%
- remaining activity at 1 µM (JNK2ALPHA2): 5%
- remaining activity at 1 µM (LKB1): 5%
- remaining activity at 1 µM (MET): 3%
- remaining activity at 1 µM (MRCKBETA): -4%
- remaining activity at 1 µM (NEK6): -10%
- remaining activity at 1 µM (PKCMU): -1%
- IC50 (PKG1BETA): > 10 µM
- remaining activity at 1 µM (PTK5): -18%
- remaining activity at 1 µM (RIPK2): -6%
- remaining activity at 1 µM (RON): -9%
- remaining activity at 1 µM (RSK1): -23%
- remaining activity at 1 µM (SIK): 20%
- remaining activity at 1 µM (TBK1): 4%
- remaining activity at 1 µM (WNK3): -25%
- remaining activity at 1 µM (GRK5): -5%
- remaining activity at 1 µM (CAMKIIBETA): 8%
- remaining activity at 1 µM (CLK3): -8%
- remaining activity at 1 µM (FAK): -5%
- remaining activity at 1 µM (VRK2): -2%
- remaining activity at 1 µM (PIM-3): 8%
- remaining activity at 1 µM (TLK2): -9%
- remaining activity at 1 µM (MELK): 32%

From PMC4767141, “Discovery of Potent, Orally Bioavailable, Small-Molecule Inhibitors of WNT Signaling from a Cell-Based Pathway Screen” (Journal of Medicinal Chemistry, 2015)
